# Reference: patent US8283361B2 (AstraZeneca AB, priority 2008, dated 2012)
# Target: S. aureus GyrB ATPase (Staphylococcus aureus, UniProt P0A0K8)
# Assay: biochemical
# Conditions: compound at 1 μM; one value per test if tested more than once; read-out: % Inhibition of S. aureus GyrB ATPase
# Description: S. aureus GyrB ATPase Inhibition Activity: Compounds may be tested for inhibition of S. aureus GyrB ATPase activity using an ammonium molybdate/malachite green-based phosphate detection assay (Lanzetta, P. A., L. J. Alvarez, P. S. Reinach, and O. A. Candia, 1979, 100: 95-97). Assays can be performed in multiwell plates in 30 μl reactions containing: 50 mM Hepes buffer pH 7.5, 75 mM ammonium acetate, 8.0 mM magnesium chloride, 0.5 mM ethylenediaminetetraacetic acid, 5% glycerol, 1.0 mM 1,4-Dithio-DL-threitol, 200 nM bovine serum albumin, 1.0 μg/m1 sheared salmon sperm DNA, 250 pM E. coli GyrA, 250 pM S. aureus GyrB, 250 μM ATP, and compound in dimethylsulfoxide. Reactions can be quenched with 30 μl of ammonium molybdate/malachite green detection reagent containing 1.2 mM malachite green hydrochloride, 8.5 mM ammonium molybdate tetrahydrate, and 1 M hydrochloric acid. […] An IC50 measurement of compound potency for each compound can be determined from reactions performed in the presence of 10 different compound concentrations.
# Chain of S. aureus GyrB ATPase (P0A0K8 whole entry): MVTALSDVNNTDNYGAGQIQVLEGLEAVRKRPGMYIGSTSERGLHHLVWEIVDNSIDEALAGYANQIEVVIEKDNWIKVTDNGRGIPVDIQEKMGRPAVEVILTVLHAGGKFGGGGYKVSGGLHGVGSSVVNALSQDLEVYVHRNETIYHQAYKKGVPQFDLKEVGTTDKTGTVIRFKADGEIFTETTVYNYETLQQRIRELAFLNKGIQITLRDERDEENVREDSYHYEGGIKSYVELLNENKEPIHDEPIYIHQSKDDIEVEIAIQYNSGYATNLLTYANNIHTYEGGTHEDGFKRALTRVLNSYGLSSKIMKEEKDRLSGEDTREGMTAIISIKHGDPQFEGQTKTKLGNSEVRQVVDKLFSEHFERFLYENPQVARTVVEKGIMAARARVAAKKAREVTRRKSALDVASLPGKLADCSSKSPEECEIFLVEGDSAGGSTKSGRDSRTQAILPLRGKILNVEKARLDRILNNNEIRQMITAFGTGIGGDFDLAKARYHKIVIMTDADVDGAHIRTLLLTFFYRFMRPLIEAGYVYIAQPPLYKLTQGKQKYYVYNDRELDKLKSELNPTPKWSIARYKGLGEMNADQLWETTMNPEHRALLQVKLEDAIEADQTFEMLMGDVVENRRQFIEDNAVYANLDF
# Chain of S. aureus GyrB ATPase (P0AES4 whole entry, further chain): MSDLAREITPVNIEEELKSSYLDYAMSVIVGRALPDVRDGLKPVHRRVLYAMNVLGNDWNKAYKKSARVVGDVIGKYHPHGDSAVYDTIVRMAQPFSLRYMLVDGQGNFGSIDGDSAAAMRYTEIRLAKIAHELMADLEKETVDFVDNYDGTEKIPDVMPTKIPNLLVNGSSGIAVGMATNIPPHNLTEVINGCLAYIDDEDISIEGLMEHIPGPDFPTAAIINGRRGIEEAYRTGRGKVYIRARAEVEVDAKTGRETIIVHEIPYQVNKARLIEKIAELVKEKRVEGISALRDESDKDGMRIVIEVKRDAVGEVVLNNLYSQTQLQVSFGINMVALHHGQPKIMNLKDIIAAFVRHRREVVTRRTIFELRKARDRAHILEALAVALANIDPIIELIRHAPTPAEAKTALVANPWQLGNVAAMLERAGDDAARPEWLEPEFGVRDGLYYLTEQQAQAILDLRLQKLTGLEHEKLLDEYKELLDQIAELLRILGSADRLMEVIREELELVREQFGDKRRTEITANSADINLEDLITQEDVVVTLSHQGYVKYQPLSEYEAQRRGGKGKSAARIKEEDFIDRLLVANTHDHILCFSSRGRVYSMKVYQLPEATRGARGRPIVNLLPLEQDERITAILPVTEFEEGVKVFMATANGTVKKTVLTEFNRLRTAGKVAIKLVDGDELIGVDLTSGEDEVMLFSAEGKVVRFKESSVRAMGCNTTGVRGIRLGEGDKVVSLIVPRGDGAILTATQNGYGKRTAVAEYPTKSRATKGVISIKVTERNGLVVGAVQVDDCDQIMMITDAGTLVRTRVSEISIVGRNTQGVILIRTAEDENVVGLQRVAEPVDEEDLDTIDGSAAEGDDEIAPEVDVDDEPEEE
row,Structure (SMILES),inhibition at 1 µM [%]
1,"CCNC(=O)Nc1cc(-c2nc(C(F)(F)F)cs2)c(-c2ccc3c(c2)c(=O)c(C(=O)O)cn3[C@@H]2CCCN(CC(C)(C)CN3CCOCC3)C2)cn1 [Example 290, (R)-1-(1-(2,2-dimethyl-3-morpholinopropyl)piperidin-3-yl)-6-(6-(3-ethylureido)-4-(4-(trifluoromethyl)thiazol-2-yl)pyridin-3-yl)-4-oxo-1,4-dihydroquinoline-3-carboxylic acid]",100
2,"CCNC(=O)Nc1cc(-c2nc(C(F)(F)F)cs2)c(-c2ccc3c(=O)c(C(=O)O)cn(CCC(C)C)c3c2)cn1 [Example 25, 7-{6-[(ethylcarbamoyl)amino]-4-[4-(trifluoromethyl)-1,3-thiazol-2-yl]pyridin-3-yl}-1-(3-methylbutyl)-4-oxo-1,4-dihydroquinoline-3-carboxylic acid]",99
3,"CCNC(=O)Nc1cc(-c2nc(C(F)(F)F)cs2)c(-c2ccc3c(=O)c(C(=O)NCCCO)cn(CCC(C)C)c3c2)cn1 [Example 337, 7-{6-[(ethylcarbamoyl)amino]-4-[4-(trifluoromethyl)-1,3-thiazol-2-yl]pyridin-3-yl}-N-(3-hydroxypropyl)-1-(3-methylbutyl)-4-oxo-1,4-dihydroquinoline-3-carboxamide]",106
4,"CCNC(=O)Nc1cc(-c2nc(C(F)(F)F)cs2)c(-c2ccc3c(c2)c(=O)c(C(=O)O)cn3[C@@H]2CCCN(CCN3CCOCC3)C2)cn1 [Example 285, (R)-ethyl 6-(6-(3-ethylureido)-4-(4-(trifluoromethyl)thiazol-2-yl)pyridin-3-yl)-1-(1-(2-morpholinoethyl)piperidin-3-yl)-4-oxo-1,4-dihydroquinoline-3-carboxylic acid]",105
5,"CCNC(=O)Nc1cc(-c2nc(C(F)(F)F)cs2)c(-c2ccc3c(c2)c(=O)c(C(=O)N2CCN(C(C)=O)CC2)cn3CCN(C)C)cn1 [Example 162, 1-(5-(3-(4-acetylpiperazine-1-carbonyl)-1-(2-(dimethylamino)ethyl)-4-oxo-1,4-dihydroquinolin-6-yl)-4-(4-(trifluoromethyl)thiazol-2-yl)pyridin-2-yl)-3-ethylurea]",106
6,"CCNC(=O)Nc1cc(-c2nc(-c3ccccc3)cs2)c(-c2cc3c4c(c2)c(=O)c(C(=O)NC)cn4CCO3)cn1 [Example 41, 9-(6-(3-ethylureido)-4-(4-phenylthiazol-2-yl)pyridin-3-yl)-N-methyl-7-oxo-3,7-dihydro-2H-[1,4]oxazino[2,3,4-ij]quinoline-6-carboxamide]",105
7,"CCNC(=O)Nc1cc(-c2nc(C(F)(F)F)cs2)c(-c2ccc3c(c2)c(=O)c(C(=O)N2CCN(C)CC2)cn3C(COC)COC)cn1 [Example 143, 1-(5-{1-(1,3-dimethoxypropan-2-yl)-3-[(4-methylpiperazin-1-yl)carbonyl]-4-oxo-1,4-dihydroquinolin-6-yl}-4-[4-(trifluoromethyl)-1,3-thiazol-2-yl]pyridin-2-yl)-3-ethylurea]",95
8,"CCNC(=O)Nc1cc(-c2nc(C(F)(F)F)cs2)c(-c2ccc3c(=O)c(C(=O)NCCN(C)C)cn(Cc4ccccc4)c3c2)cn1 [Example 356, 1-Benzyl-N-[2-(dimethylamino)ethyl]-7-{6-[(ethylcarbamoyl)amino]-4-[4-(trifluoromethyl)-1,3-thiazol-2-yl]pyridin-3-yl}-4-oxo-1,4-dihydroquinoline-3-carboxamide]",85
9,"CCNC(=O)Nc1cc(-c2nc(-c3ccccc3)cs2)c(-c2ccc3c(c2)c(=O)c(C(=O)O)cn3CCOC)cn1 [Example 2, 6-(6-(3-ethylureido)-4-(4-phenylthiazol-2-yl)pyridin-3-yl)-1-(2-methoxyethyl)-4-oxo-1,4-dihydroquinoline-3-carboxylic acid]",100
10,"CCNC(=O)Nc1cc(-c2nc(C(F)(F)F)cs2)c(-c2ccc3c(=O)c(C(=O)O)cn(Cc4ccccc4)c3c2)cn1 [Example 28, 1-benzyl-7-{6-[(ethylcarbamoyl)amino]-4-[4-(trifluoromethyl)-1,3-thiazol-2-yl]pyridin-3-yl}-4-oxo-1,4-dihydroquinoline-3-carboxylic acid]",97
11,"CCNC(=O)Nc1cc(-c2nc(C(F)(F)F)cs2)c(-c2ccc3c(c2)c(=O)c(C(=O)O)cn3C2CCCN(Cc3ccncc3)C2)cn1 (centres unmarked) [Example 309, 6-(6-(3-ethylureido)-4-(4-(trifluoromethyl)thiazol-2-yl)pyridin-3-yl)-4-oxo-1-(1-(pyridin-4-ylmethyl)piperidin-3-yl)-1,4-dihydroquinoline-3-carboxylic acid]",109
12,"CCNC(=O)Nc1cc(-c2nc(C(F)(F)F)cs2)c(-c2ccc3c(=O)c(C(=O)NCCO)cn(CCOC)c3c2)cn1 [Example 370, 7-{6-[(Ethylcarbamoyl)amino]-4-[4-(trifluoromethyl)-1,3-thiazol-2-yl]pyridin-3-yl}-N-(2-hydroxyethyl)-1-(2-methoxyethyl)-4-oxo-1,4-dihydroquinoline-3-carboxamide]",98
13,"CCNC(=O)Nc1cc(-c2nc(-c3ccccc3)cs2)c(-c2ccc3c(=O)c(C(=O)OCC)cn(CC)c3c2)cn1 [Example 44, ethyl 1-ethyl-7-(6-(3-ethylureido)-4-(4-phenylthiazol-2-yl)pyridin-3-yl)-4-oxo-1,4-dihydroquinoline-3-carboxylate]",98
14,"CCNC(=O)Nc1cc(-c2nc(C(F)(F)F)cs2)c(-c2ccc3c(c2)c(=O)c(C(=O)O)cn3[C@H]2CCCC[C@@H]2O)cn1 [Example 279, 6-(6-(3-ethylureido)-4-(4-(trifluoromethyl)thiazol-2-yl)pyridin-3-yl)-1-((1S,2S)-2-hydroxycyclohexyl)-4-oxo-1,4-dihydroquinoline-3-carboxylic acid]",103
15,"CCCNC(=O)Nc1cc(-c2nc(C(F)(F)F)cs2)c(-c2ccc3c(c2)c(=O)c(C(=O)NCCO)cn3CCN2CCOCC2)cn1 [Example 205, N-(2-hydroxyethyl)-1-(2-morpholinoethyl)-4-oxo-6-(6-(3-propylureido)-4-(4-(trifluoromethyl)thiazol-2-yl)pyridin-3-yl)-1,4-dihydroquinoline-3-carboxamide]",94
16,"CCNC(=O)Nc1cc(-c2nc(C(F)(F)F)cs2)c(-c2ccc3c(=O)c(C(=O)NCCO)cn(CC)c3c2)cn1 [Example 330, 1-Ethyl-7-{6-[(ethylcarbamoyl)amino]-4-[4-(trifluoromethyl)-1,3-thiazol-2-yl]pyridin-3-yl}-N-(2-hydroxyethyl)-4-oxo-1,4-dihydroquinoline-3-carboxamide]",109
17,"CCNC(=O)Nc1cc(-c2nc(C(F)(F)F)cs2)c(-c2ccc3c(c2)c(=O)c(C(=O)O)cn3[C@@H](CO)C(C)C)cn1 [Example 85, (R)-6-(6-(3-ethylureido)-4-(4-(trifluoromethyl)thiazol-2-yl)pyridin-3-yl)-1-(1-hydroxy-3-methylbutan-2-yl)-4-oxo-1,4-dihydroquinoline-3-carboxylic acid]",96
18,"CCNC(=O)Nc1cc(-c2nc(C(F)(F)F)cs2)c(-c2ccc3c(c2)c(=O)c(C(=O)O)cn3C2(CO)CCOCC2)cn1 [Example 122, 6-(6-(3-ethylureido)-4-(4-(trifluoromethyl)thiazol-2-yl)pyridin-3-yl)-1-(4-(hydroxymethyl)tetrahydro-2H-pyran-4-yl)-4-oxo-1,4-dihydroquinoline-3-carboxylic acid]",95
19,"CCNC(=O)Nc1cc(-c2nc(C(F)(F)F)cs2)c(-c2ccc3c(c2)c(=O)c(C(=O)O)cn3CC)cn1 [Example 10, 1-ethyl-6-(6-(3-ethylureido)-4-(4-trifluoromethylthiazol-2-yl)pyridin-3-yl)-4-oxo-1,4-dihydroquinoline-3-carboxylic acid]",99
20,"CCNC(=O)Nc1cc(-c2nc(C(F)(F)F)cs2)c(-c2ccc3c(c2)c(=O)c(C(=O)O)cn3[C@H]2CCCN(C)C2)cn1 [Example 248, (S)-6-(6-(3-ethylureido)-4-(4-(trifluoromethyl)thiazol-2-yl)pyridin-3-yl)-1-(1-methylpiperidin-3-yl)-4-oxo-1,4-dihydroquinoline-3-carboxylic acid]",103
21,"CCNC(=O)Nc1cc(-c2nc(C(F)(F)F)cs2)c(-c2ccc3c(c2)c(=O)c(C(=O)O)cn3C(C)C)cn1 [Example 21, 6-(6-(3-Ethylureido)-4-(4-(trifluoromethyl)thiazol-2-yl)pyridin-3-yl)-1-isopropyl-4-oxo-1,4-dihydroquinoline-3-carboxylic acid]",98
22,"CCNC(=O)Nc1cc(-c2nc(C(F)(F)F)cs2)c(-c2ccc3c(c2)c(=O)c(C(=O)O)cn3C(CO)C2CCOCC2)cn1 (centres unmarked) [Example 80, 6-(6-(3-ethylureido)-4-(4-(trifluoromethyl)thiazol-2-yl)pyridin-3-yl)-1-(-hydroxy-1-(tetrahydro-H-pyran-4-yl)ethyl)-4-oxo-1,4-dihydroquinoline-3-carboxylic acid]",96
23,"CCNC(=O)Nc1cc(-c2nc(C(F)(F)F)cs2)c(-c2ccc3c(=O)c(C(=O)NCCCO)cn(CC)c3c2)cn1 [Example 331, 1-Ethyl-7-{6-[(ethylcarbamoyl)amino]-4-[4-(trifluoromethyl)-1,3-thiazol-2-yl]pyridin-3-yl}-N-(3-hydroxypropyl)-4-oxo-1,4-dihydroquinoline-3-carboxamide]",109
